Each structure is given as a SMILES string. pKd: −log10 of the molar value.

Assay [1] concerns the target A2A adenosine receptor (A2AR*, with mutations A54L, T88A, K122A, and V239A) (Homo sapiens, UniProt P29274, A54L/K122A/T88A/V239A). Nature of the assay: Biacore kinetic analysis of antagonists binding to capture-coupled A2AR*. (SPR reads the build-up and loss of mass on a sensor chip optically.)
Assay [2] has as its target β1 adrenergic receptor (β1AR*, with mutations R68S, Y227A, A282L, F237A, and F338M) (Meleagris gallopavo, UniProt P07700, A282L/F327A/F338M/R68S/Y227A). Kind of assay: biochemical. The format is binding, turkey.
Assay [3] concerns the target β1 adrenergic receptor (β1AR*) (Meleagris gallopavo, UniProt P07700, A282L/F327A/F338M/R68S/Y227A). Kind of assay: biochemical. Format: binding, turkey.

In general, pKd refers to −log10 of the Kd, conventionally taken in molar units. Consider `CCCn1c(=O)[nH]c2nc(-c3ccc(S(=O)(=O)O)cc3)[nH]c2c1=O` [PSB 1115], for which, in assay [1] (A2AR, approximate value given in text for the displacement-regeneration compound), the pKd is around 6.00.

Take `Nc1nc2c(cnn2CCc2ccccc2)c2nc(-c3ccco3)nn12` [SCH 58261]: the kd in assay [1] is recorded as 6.6(2) × 10^−2 s^−1. In assay [1] (biacore capture-coupled a2ar*), the ka is 1.00(3) × 10^6 M^−1s^−1.

`C=CCc1ccccc1OCC(O)CNC(C)C` (centres unmarked) [alprenolol]: in assay [2], the pKd was 7.72, the ka is 1.31(4) × 10^6 M^−1s^−1 and the kd was 2.49(7) × 10^−2 s^−1.

Regarding `CC(C)NCC(O)COc1ccc(CC(N)=O)cc1` (centres unmarked) [atenolol], the pKd in assay [3] was 4.31.

As to `COc1ccc(OC)c(C(O)C(C)NC(C)(C)C)c1` (centres unmarked) [butoxamine], in assay [3], the pKd is 5.29.

Turning to `CC(C)(C)NCC(O)c1cc(Cl)c(N)c(Cl)c1` (centres unmarked) [clenbuterol], in assay [2], the pKd is 6.27, the ka was 2.47(9) × 10^5 M^−1s^−1 and the kd is recorded as 1.33(5) × 10^−1 s^−1.

The molecule `C[C@@H](CO)NC(=O)[C@@H]1C=C2c3cccc4[nH]cc(c34)C[C@H]2N(C)C1` [ergonovine] had a pKd in assay [3] of 4.08.

For the molecule `CC(CCc1ccccc1)NCC(O)c1ccc(O)c(C(N)=O)c1` (centres unmarked) [labetalol], the pKd in assay [2] was 7.02.

`CC[C@@H](CO)NC(=O)[C@@H]1C=C2c3cccc4[nH]cc(c34)C[C@H]2N(C)C1` [methylergonovine] gave a pKd in assay [3] of 4.30.

Turning to `OC(CNCC(O)C1CCc2cc(F)ccc2O1)C1CCc2cc(F)ccc2O1` (centres unmarked) [nebivolol], the kd in assay [2] was 1.50(3) × 10^−2 s^−1.

Turning to `NCCc1c[nH]c2ccc(O)cc12` [serotonin], in assay [3], the pKd was 4.85.

Take `CC(C)(C)NC[C@H](O)COc1nsnc1N1CCOCC1` [timolol]: the kd in assay [2] is recorded as 6.94(8) × 10^−3 s^−1.

The values are drawn from article PMC3010267 (Analytical biochemistry, 2010).
